Source: the supplement of paper PMC11451515

System: SEM cells
Test: cell viability relative to DMSO control; higher = less cytotoxic
Conditions: 48 h
Method in brief: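 In 1536-well plates, 5 μl of leukemia cells were seeded per well: 500 cells/well for NOMO1 or SEM and 1000 cells/well for P12-Ichikawa. Each line had first been adapted for at least four passages in each medium. Library compounds in DMSO were pin-dosed at 11 threefold concentrations between 47 μM and 0.79 nM, and CellTiter-Glo One luminescence was read after 48 h at 37°C. Viability is a per-plate percentage relative to DMSO wells, with cell-free wells as background.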

[1] = HPLM + 10% dialyzed FBS, 0.000781 µM
[2] = HPLM + 10% dialyzed FBS, 0.00234 µM
[3] = HPLM + 10% dialyzed FBS, 0.00702 µM
[4] = HPLM + 10% dialyzed FBS, 0.0211 µM
[5] = HPLM + 10% dialyzed FBS, 0.0632 µM
[6] = HPLM + 10% dialyzed FBS, 0.19 µM
[7] = HPLM + 10% dialyzed FBS, 0.569 µM
[8] = HPLM + 10% dialyzed FBS, 1.71 µM
[9] = HPLM + 10% dialyzed FBS, 5.12 µM
[10] = HPLM + 10% dialyzed FBS, 15.4 µM
[11] = HPLM + 10% dialyzed FBS, 46.1 µM
[12] = RPMI 5 mM glucose + 10% FBS, 0.000781 µM
[13] = RPMI 5 mM glucose + 10% FBS, 0.00234 µM
[14] = RPMI 5 mM glucose + 10% FBS, 0.00702 µM
[15] = RPMI 5 mM glucose + 10% FBS, 0.0211 µM
[16] = RPMI 5 mM glucose + 10% FBS, 0.0632 µM
[17] = RPMI 5 mM glucose + 10% FBS, 0.19 µM
[18] = RPMI 5 mM glucose + 10% FBS, 0.569 µM
[19] = RPMI 5 mM glucose + 10% FBS, 1.71 µM
[20] = RPMI 5 mM glucose + 10% FBS, 5.12 µM
[21] = RPMI 5 mM glucose + 10% FBS, 15.4 µM
[22] = RPMI 5 mM glucose + 10% FBS, 46.1 µM
[23] = RPMI 5 mM glucose + 10% dialyzed FBS, 0.000781 µM
[24] = RPMI 5 mM glucose + 10% dialyzed FBS, 0.00234 µM
[25] = RPMI 5 mM glucose + 10% dialyzed FBS, 0.00702 µM
[26] = RPMI 5 mM glucose + 10% dialyzed FBS, 0.0211 µM
[27] = RPMI 5 mM glucose + 10% dialyzed FBS, 0.0632 µM
[28] = RPMI 5 mM glucose + 10% dialyzed FBS, 0.19 µM
[29] = RPMI 5 mM glucose + 10% dialyzed FBS, 0.569 µM
[30] = RPMI 5 mM glucose + 10% dialyzed FBS, 1.71 µM
[31] = RPMI 5 mM glucose + 10% dialyzed FBS, 5.12 µM
[32] = RPMI 5 mM glucose + 10% dialyzed FBS, 15.4 µM
[33] = RPMI 5 mM glucose + 10% dialyzed FBS, 46.1 µM

Compound | cell viability [1] [%] | cell viability [2] [%] | cell viability [3] [%] | cell viability [4] [%] | cell viability [5] [%] | cell viability [6] [%] | cell viability [7] [%] | cell viability [8] [%] | cell viability [9] [%] | cell viability [10] [%] | cell viability [11] [%] | cell viability [12] [%] | cell viability [13] [%] | cell viability [14] [%] | cell viability [15] [%] | cell viability [16] [%] | cell viability [17] [%] | cell viability [18] [%] | cell viability [19] [%] | cell viability [20] [%] | cell viability [21] [%] | cell viability [22] [%] | cell viability [23] [%] | cell viability [24] [%] | cell viability [25] [%] | cell viability [26] [%] | cell viability [27] [%] | cell viability [28] [%] | cell viability [29] [%] | cell viability [30] [%] | cell viability [31] [%] | cell viability [32] [%] | cell viability [33] [%]
COc1ccc([C@@H]2CC(=O)c3c(O)cc(O[C@@H]4O[C@H](CO[C@@H]5O[C@@H](C)[C@H](O)[C@@H](O)[C@H]5O)[C@@H](O)[C@H](O)[C@H]4O)cc3O2)cc1O | 99.2 | 101 | 93.9 | 93.2 | 113 | 48 | 110 | 116 | 125 | 108 | 123 | 105 | 86.6 | 98.4 | 93.4 | 112 | 58.5 | 107 | 91.3 | 107 | 113 | 120 | 112 | 107 | 106 | 114 | 110 | 54.7 | 127 | 114 | 132 | 137 | 119
COC1=C2C[C@@H](C)C[C@H](OC)[C@H](O)[C@@H](C)/C=C(\C)[C@H](OC(N)=O)[C@@H](OC)/C=C/C=C(\C)C(=O)NC(=CC1=O)C2=O | 122 | 115 | 125 | 127 | 117 | 123 | 101 | 115 | 100 | 6.39 | 5.09 | – | – | – | – | – | – | – | – | – | – | – | 110 | 105 | 102 | 108 | 97.2 | 95.8 | 99.7 | 114 | 72.2 | 5.54 | 4.75
CCCCCCCCCC(=O)N[C@@H](Cc1c[nH]c2ccccc12)C(=O)N[C@H](CC(N)=O)C(=O)N[C@@H](CC(=O)O)C(=O)N[C@@H]1C(=O)NCC(=O)N[C@@H](CCCN)C(=O)N[C@@H](CC(=O)O)C(=O)N[C@H](C)C(=O)N[C@@H](CC(=O)O)C(=O)NCC(=O)N[C@H](CO)C(=O)N[C@@H]([C@@H](C)CC(=O)O)C(=O)N[C@@H](CC(=O)c2ccccc2N)C(=O)O[C@@H]1C | 81.6 | 101 | 98.3 | 108 | 93.4 | 108 | 121 | 114 | 116 | 107 | 101 | 103 | 103 | 123 | 114 | 105 | 120 | 121 | 102 | 116 | 119 | 120 | 102 | 105 | 94.8 | 103 | 123 | 104 | 117 | 103 | 109 | 105 | 102
CC(C)c1cc(C(=O)N2Cc3ccc(CN4CCN(C)CC4)cc3C2)c(O)cc1O | – | – | – | – | – | – | – | – | – | – | – | 104 | 105 | 107 | 17.8 | 112 | 107 | 31.1 | 23.5 | 21.5 | 23.1 | 18.3 | 125 | 120 | 120 | 20.5 | 106 | 99.9 | 47.2 | 32.4 | 29.8 | 28.8 | 25.9
CC(C)C[C@H](NC(=O)CNC(=O)c1cc(Cl)ccc1Cl)B(O)O | 86.3 | 77.4 | 109 | 19.6 | 107 | 12.5 | 7.52 | 6.82 | 6.78 | 4.58 | 3.36 | 88.4 | 85.9 | 103 | 15.2 | 113 | 11.4 | 7.76 | 5.7 | 4.81 | 3.3 | 2.05 | 83.2 | 68.2 | 90.6 | 16.8 | 107 | 17.6 | 7.97 | 6.58 | 5.53 | 4.01 | 2.9
O=C(c1ccc(F)c(F)c1Nc1ccc(I)cc1F)N1CC(O)([C@@H]2CCCCN2)C1 | 75.2 | 92.2 | 98.2 | 99.8 | 85.4 | 83.6 | 105 | 97 | 69.2 | 71.4 | 60.8 | 98.8 | 88.6 | 100 | 104 | 98.1 | 100 | 92.5 | 99.1 | 77.8 | 71.6 | 55.1 | 82.8 | 96.3 | 97.4 | 111 | 104 | 96.6 | 86.2 | 92.7 | 68.5 | 76.9 | 60.1
CC[C@@]1(O)C(=O)OC\C2=C1\C=C\3N(CC4=C3N=C5C=CC=CC5=C4)C2=O | 126 | 116 | 110 | 103 | 40.3 | 14.9 | 7.26 | 4.92 | 4.54 | 4.65 | 5.06 | 105 | 86.8 | 87.2 | 55.3 | 15.3 | 11.4 | 6.29 | 3.5 | 3.72 | 3.35 | 4.07 | 127 | 119 | 105 | 77.2 | 28.1 | 13.4 | 7.26 | 4.41 | 4.16 | 4.15 | 4.83
COc1ncnc(N[S+](=O)([O-])c2ccc(N)cc2)c1OC | 33.3 | 74 | 64.9 | 77.8 | 96.9 | 75.1 | 77.2 | 46.8 | 11.4 | 5.63 | 6.09 | 46 | 102 | 82.5 | 96.4 | 101 | 88.3 | 59.3 | 44 | 6.03 | 4.36 | 5.06 | 39.2 | 96.9 | 79.2 | 114 | 118 | 92.6 | 86.1 | 50.4 | 17.9 | 8.47 | 8.64
CN[C@@H](C)C(=O)N[C@H]1CN(C(=O)CC(C)C)CC[C@H]2CC[C@@H](C(=O)NC(c3ccccc3)c3ccccc3)N2C1=O | 76.3 | 90.5 | 98.3 | 100 | 98.1 | 93.7 | 99 | 103 | 99.9 | 71.4 | 41 | 107 | 103 | 105 | 110 | 104 | 102 | 96.7 | 83.5 | 74.2 | 56.5 | 38.5 | 95.5 | 86.1 | 92.8 | 104 | 106 | 97.9 | 102 | 95.1 | 77.7 | 61 | 36.2
CC(C)c1ccc(Cn2ccc3c4c(N)nc(NC5CC5)nc4ccc32)cc1 | 99.5 | 100 | 113 | 100 | 113 | 107 | 67.6 | 53.2 | 37.5 | 31.9 | 6.32 | 107 | 114 | 120 | 80.5 | 106 | 120 | 102 | 110 | 35.5 | 19.5 | 8.49 | 97.7 | 113 | 123 | 80.5 | 125 | 124 | 134 | 119 | 46.7 | 33.3 | 9.93
CNCc1ccc(-c2[nH]c3cc(F)cc4c3c2CCNC4=O)cc1 | 101 | 103 | 126 | 148 | 122 | 118 | 117 | 133 | 155 | 141 | 109 | 106 | 118 | 128 | 123 | 134 | 127 | 143 | 152 | 163 | 153 | 128 | 94.5 | 110 | 115 | 115 | 95.7 | 130 | 126 | 136 | 115 | 120 | 106
CC1(N2CCC(n3c([C@@H]4CCCNC4)nc4ccccc43)CC2)CCCCCCC1 | 76.6 | 88.6 | 99.7 | 105 | 105 | 89.3 | 103 | 96 | 92.5 | 72.2 | 42.4 | 99.3 | 87.8 | 105 | 119 | 121 | 107 | 119 | 116 | 109 | 96.6 | 87.3 | 103 | 78.8 | 98.7 | 111 | 106 | 95.7 | 117 | 113 | 130 | 77.3 | 87.6
C[S+](=O)([O-])c1ccc(-c2cnc(N)c(C(=O)Nc3ccccc3)n2)cc1 | 99.6 | 98.3 | 115 | 107 | 123 | 106 | 127 | 110 | 95.2 | 23.7 | 20.2 | 99.1 | 87.6 | 90.7 | 105 | 107 | 133 | 129 | 119 | 103 | 33.1 | 25.3 | 98.5 | 103 | 98.5 | 99.6 | 96.2 | 111 | 99.8 | 105 | 82.7 | 16 | 15.4
COC1=CC=C(C=C1O)C/2=C/C(=O)C3=C(O2)C=C(O)C=C3O | 98 | 89.5 | 85.9 | 95.2 | 98.4 | 97.9 | 92.4 | 93.7 | 79.6 | 65.7 | 60.6 | 103 | 95.4 | 113 | 94.3 | 106 | 113 | 110 | 113 | 94.8 | 87.9 | 63.7 | 97.6 | 94.8 | 105 | 104 | 102 | 87.7 | 111 | 119 | 101 | 81.3 | 56.8
O=C(O)CCn1c2c(c3ccccc31)C[C@H](N[S+](=O)([O-])c1ccc(F)cc1)CC2 | 112 | 115 | 112 | 110 | 111 | 106 | 96.8 | 126 | 118 | 107 | 104 | 120 | 102 | 118 | 109 | 122 | 108 | 86.7 | 117 | 104 | 107 | 96.4 | 112 | 119 | 119 | 123 | 122 | 120 | 90.6 | 106 | 128 | 120 | 124
